Reference: patent US20240336606A1 (Suzhou Zelgen Biopharmaceuticals Co., Ltd., priority 2020, published 2024)

molecular target: T1, binding of KRAS^G12C to SOS1 (Homo sapiens, UniProt Q07889); experiment: Inhibition of the binding of KRAS^G12C to SOS1; settings: Tag1-SOS1 / Tag2-KRAS^G12C, 2 h incubation at room temperature; read-out: IC50 (nM), inhibitory activity on the binding of KRAS^G12C to SOS1
T1 construct: Tag1 (unspecified)
T1 sequence (Q07889 1-1333): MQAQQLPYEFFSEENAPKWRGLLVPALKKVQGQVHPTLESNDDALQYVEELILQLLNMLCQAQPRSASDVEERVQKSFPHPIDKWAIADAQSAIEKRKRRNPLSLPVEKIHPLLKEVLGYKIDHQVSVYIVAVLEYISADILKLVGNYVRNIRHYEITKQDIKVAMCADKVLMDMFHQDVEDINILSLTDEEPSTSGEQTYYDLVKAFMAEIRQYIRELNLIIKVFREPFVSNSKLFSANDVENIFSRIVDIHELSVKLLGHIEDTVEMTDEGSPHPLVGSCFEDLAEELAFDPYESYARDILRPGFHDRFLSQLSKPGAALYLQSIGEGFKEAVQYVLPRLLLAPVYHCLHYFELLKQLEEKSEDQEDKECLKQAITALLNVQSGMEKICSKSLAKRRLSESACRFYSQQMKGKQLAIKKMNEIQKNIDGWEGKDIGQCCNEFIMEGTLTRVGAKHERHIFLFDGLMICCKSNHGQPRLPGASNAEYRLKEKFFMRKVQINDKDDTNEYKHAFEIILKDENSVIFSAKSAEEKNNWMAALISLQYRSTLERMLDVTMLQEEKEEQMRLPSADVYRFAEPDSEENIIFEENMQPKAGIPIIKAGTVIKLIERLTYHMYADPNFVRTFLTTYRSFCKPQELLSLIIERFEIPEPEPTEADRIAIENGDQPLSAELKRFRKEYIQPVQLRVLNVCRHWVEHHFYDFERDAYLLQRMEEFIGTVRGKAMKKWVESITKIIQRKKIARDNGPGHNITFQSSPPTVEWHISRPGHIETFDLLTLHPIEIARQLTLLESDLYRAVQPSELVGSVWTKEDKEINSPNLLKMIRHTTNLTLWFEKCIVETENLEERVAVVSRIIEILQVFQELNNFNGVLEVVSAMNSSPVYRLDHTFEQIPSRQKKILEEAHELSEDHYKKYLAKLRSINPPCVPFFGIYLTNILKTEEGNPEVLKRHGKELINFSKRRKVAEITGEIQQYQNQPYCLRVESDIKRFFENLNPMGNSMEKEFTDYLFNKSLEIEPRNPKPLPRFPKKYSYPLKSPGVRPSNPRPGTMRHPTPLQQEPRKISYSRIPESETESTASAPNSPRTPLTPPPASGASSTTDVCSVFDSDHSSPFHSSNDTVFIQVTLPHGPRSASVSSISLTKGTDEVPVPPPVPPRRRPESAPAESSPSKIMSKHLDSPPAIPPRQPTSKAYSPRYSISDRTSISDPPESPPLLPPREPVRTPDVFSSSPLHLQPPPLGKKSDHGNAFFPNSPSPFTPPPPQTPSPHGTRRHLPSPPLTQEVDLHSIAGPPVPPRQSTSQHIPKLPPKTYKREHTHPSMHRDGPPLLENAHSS
In short: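 Tag1-SOS1 and Tag2-KRAS^G12C mixed with serially diluted compound (final 0.25% DMSO), then anti-Tag1-Tb3+ and anti-Tag2-XL665 added for 2 h at room temperature. IC50 from curve fit of the TR-FRET signal.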

| IC50 | Compound |
| --- | --- |
| 15 nM | COc1cc2nc(C)nc(N[C@H](C)c3cc(N)cc(C(F)(F)F)n3)c2cc1OCCOC1(C)CCC1 [Example 73, (R)—N-(1-(4-Amino-6-(trifluoromethyl)pyridin-2-yl)ethyl)-7-methoxy-2-methyl-6-(2-(1-methylcyclobutyloxy)ethoxy)quinazolin-4-amine] |
| 40 nM | COCCOc1cc2c(N[C@H](C)c3cc(C(F)(F)C(C)(C)O)ccn3)nc(C)nc2cc1OC [Example 75] |
| 188 nM | COCCOc1cc2c(N[C@H](C)c3cccc(C(F)(F)C(C)(C)O)n3)nc(C)nc2cc1OC [Example 76] |
| 924 nM | COCCOc1cc2c(N[C@H](C)c3cncc(C(F)(F)C(C)(C)O)c3)nc(C)nc2cc1OC [Example 77] |
| 18 nM | COCCOc1cc2c(N[C@H](C)c3cccc(S(N)(=O)=O)c3)nc(C)nc2cc1OC [Example 84, (R)-3-(1-((7-Methoxy-6-(2-methoxyethoxy)-2-methylquinazolin-4-yl)amino)ethyl)benzenes ulfonamide] |
| 170 nM | COCCOc1cc2c(N[C@H](C)c3cc(OC)cc(C(F)(F)C(C)(C)O)c3)nc(C)nc2cc1OC [Example 87, (R)-1,1-Difluoro-1-(3-methoxy-5-(1-((7-methoxy-6-(2-methoxyethoxy)-2-methylquinazolin-4-yl)amino)ethyl)phenyl)-2-methylpropan-2-ol] |
| 20 nM | COCCOc1cc2c(N[C@H](C)c3cccc(C(F)(F)C(C)(C)O)c3Cl)nc(C)nc2cc1OC [Example 88, (R)-1-(2-Chloro-3-(1-((7-methoxy-6-(2-methoxyethoxy)-2-methylquinazolin-4-yl)amino)ethyl)phenyl)-1,1-difluoro-2-methylpropan-2-ol] |

system: H358 cells; experiment: Inhibition of H358 cell proliferation (CellTiter-Glo 3D, 7 days); type: cell-based; settings: Homo sapiens, 168 h, NCI-H358, 7 days, read-out: IC50 (nM), inhibitory activity on H358 cell proliferation
Experimental: • (a) The cells were thawed in T75 cell culture flasks:
• (b) When 80-90% cell confluence was achieved, the cells were passaged.
The diluted test compounds were added to a 384-well cell culture plate using a nanoliter pipetting system, and duplicate wells were set. An equal volume of medium was added to the positive control group; an equal volume of DMSO was added to the negative control group. The plate was centrifuged at 1000 rpm at room temperature for 1 min.
The cells were inoculated into a) 384-well culture plate, an equal volume of cells was added to the negative control group, and only an equal volume of medium was added to the positive control group. The plate was centrifuged at 1000 rpm at room temperature for 1 min. The final concentration of DMSO in the final compounds was 0.5%. The plate was incubated in a thermostatic incubator at 37° C. with 5% CO2 for 7 days.
CellTiter-Glo® 3D was added to b) 384-well cell culture plate at 20 μL/well. The plate was shaken at 320 rpm in the dark for 20 min, and incubated at room temperature in the dark for 2 h. The luminescence values were read using an Envision multi-mode microplate reader.
The inhibition rates of the compounds at different concentrations were calculated in Excel, and then inhibition curves were plotted and relevant parameters including minimum inhibition rate, maximum inhibition rate and IC50 were calculated using GraphPad Prism software.

| IC50 | Compound |
| --- | --- |
| 48.6 nM | COCCOc1cc2c(N[C@H](C)c3cccc(C(F)(F)C(C)(C)O)c3C)nc(C)nc2cc1OC [Example 90, (R)-1,1-Difluoro-1-(3-(1-((7-methoxy-6-(2-methoxyethoxy)-2-methylquinazolin-4-yl)amino)ethyl)-2-methylphenyl)-2-methylpropan-2-ol] |
| > 10000 nM | COCCOc1cc2c(N[C@H](C)c3cc(C#N)cc(C(F)(F)C(C)(C)O)c3)nc(C)nc2cc1OC [Example 91, (R)-3-(1,1-Difluoro-2-hydroxy-2-methylpropane)-5-(1-((7-methoxy-6-(2-methoxyethoxy)-2-methylquinazolin-4-yl)amino)ethyl)benzonitrile] |
| 18.2 nM | COc1cc2nc(C)nc(N[C@H](C)c3cccc(C(F)(F)C(C)(C)O)c3F)c2cc1OCCOC1COC1 [Example 92, (R)-1,1-Difluoro-1-(2-fluoro-3-(1-((7-methoxy-2-methyl-6-(2-(oxetan-3-yloxy)ethoxy)quinazolin-4-yl)amino)ethyl)phenyl)-2-methylpropan-2-ol] |
| 40.9 nM | COc1cc2nc(C)nc(N[C@H](C)c3cccc(C(F)(F)C(C)(C)O)c3F)c2cc1OCCOC1CC1 [Example 93, (R)-1-(3-(1-((6-(2-Cyclopropyloxyethoxy)-7-methoxy-2-methylquinazolin-4-yl)amino)ethyl)-2-fluorophenyl)-1,1-difluoro-2-methylpropan-2-ol] |
| 15.5 nM | [2H]C([2H])([2H])Oc1cc2nc(C)nc(N[C@H](C)c3cccc(C(F)(F)C(C)(C)O)c3F)c2cc1OCCOC [Example 97, (R)-1,1-Difluoro-1-(2-fluoro-3-(1-((7-deuteratedmethoxy-6-(2-methoxyethoxy)-2-methylquinazolin-4-yl)amino)ethyl)phenyl)-2-methylpro pan-2-ol] |
| 12.8 nM | CCOc1cc2nc(C)nc(N[C@H](C)c3cccc(C(F)(F)C(C)(C)O)c3F)c2cc1OCCOC [Example 98, (R)-1-(3-(1-((7-Ethoxy-6-(2-methoxyethoxy)-2-methylquinazolin-4-yl)amino)ethyl)-2-fluor ophenyl)-1,1-difluoro-2-methylpropan-2-ol] |
| 20 nM | COCCOc1cc2c(N[C@H](C)c3cccc(C(F)(F)C(C)(C)O)c3F)nc(C)nc2cc1OC(C)C [Example 99, (R)-1,1-Difluoro-1-(2-fluoro-3-(1-((7-isopropoxy-6-(2-methoxyethoxy)-2-methylquinazolin-4-yl)amino)ethyl)phenyl)-2-methylpropan-2-ol] |
| 15.5 nM | COCCOc1cc2c(N[C@H](C)c3cccc(C(F)(F)C(C)(C)O)c3F)nc(C)nc2cc1-c1cccnc1 [Example 101, (R)-1,1-Difluoro-1-(2-fluoro-3-(1-((6-(2-methoxyethoxy)-2-methyl-7-(pyridin-3-yl)quinazolin-4-yl)amino)ethyl)phenyl)-2-methylpropyl-2-ol] |
| 13.3 nM | COCCOc1cc2c(N[C@H](C)c3cccc(C(F)(F)C(C)(C)O)c3F)nc(C)nc2cc1-c1cnn(C)c1 [Example 102, (R)-1,1-Difluoro-1-(2-fluoro-3-(1-((6-(2-methoxyethoxy)-2-methyl-7-(1-methyl-1H-pyrazol-4-yl)quinazolin-4-yl)amino)ethyl)phenyl)-2-methylpropyl-2-ol] |
| 23.5 nM | COCCOc1cc2c(N[C@H](C)c3cccc(C(F)(F)C(C)(C)O)c3F)nc(C)nc2cc1OC1COC1 [Example 103] |
| 10.4 nM | COCCOc1cc2nc(C)nc(N[C@H](C)c3cc(N)cc(C(F)(F)C(C)(C)O)c3)c2cc1OCCOC [Example 113, (R)-1-(3-Amino-5-(1-((6,7-bis(2-methoxyethoxy)-2-methylquinazolin-4-yl)amino)ethyl)phenyl)-1,1-difluoro-2-methylpropan-2-ol] |
| 9.92 nM | COc1cc2nc(C)nc(N[C@H](C)c3cc(N)cc(C(F)(F)C(C)(C)O)c3)c2cc1OCCOc1cccnc1 [Example 115, (R)-1-(3-Amino-5-(1-(7-methoxy-2-methyl-6-(2-(pyridine-3-oxy)ethoxy)quinazolin-4-yl)amino)ethyl)phenyl-1,1-difluoro-2-methylpropan-2-ol] |
| 4.29 nM | COc1cc2nc(C)nc(N[C@H](C)c3cc(N)cc(C(F)(F)C(C)(C)O)c3)c2cc1OCCOC1CC1 [Example 116, (R)-1-(3-Amino-5-(1-((6-(2-cyclopropoxyethoxy)-7-methoxy-2-methylquinazolin-4-yl)amino)ethyl)phenyl)-1,1-difluoro-2-methylpropyl-2-ol] |
| 2.65 nM | COc1cc2nc(C)nc(N[C@H](C)c3cc(N)cc(C(F)(F)C(C)(C)O)c3)c2cc1OCCOC1COC1 [Example 117, (R)-1-(3-Amino-5-(1-((7-methoxy-2-methyl-6-(2-(oxetan-3-yloxy)ethoxy)quinazolin-4-yl)amino)ethyl)phenyl)-1,1-difluoro-2-methylpropyl-2-ol] |
| 2.65 nM | COc1cc2nc(C)nc(N[C@H](C)c3cc(N)cc(C(F)(F)C(C)(C)O)c3)c2cc1OCCOC1CC1(F)F (some centres unmarked) [Example 118] |
| 11.5 nM | COCCOCCOc1cc2c(N[C@H](C)c3cc(N)cc(C(F)(F)C(C)(C)O)c3)nc(C)nc2cc1OC [Example 119, (R)-1-(3-Amino-5-(1-(7-methoxy-6-(2-(2-methoxyethoxy)ethoxy)-2-methylquinazolin-4-yl)amino)ethylphenyl)-1,1-difluoro-2-methylpropan-2-ol] |
